Assay results from patent publication US8008299B2, “Urotensin II receptor antagonists” (Janssen Pharmaceutica, N.V., priority 2007, dated 2011).
Like-named read-outs stand apart in the source and are kept apart here.

Columns and labels:
[1] = biological target: T1, rat GPR14 (U-II receptor) (Rattus norvegicus, UniProt P49684); experiment: Rat UII Calcium Mobilization FLIPR Assay; format: cell-based; settings: CHO cells transfected with rat GPR14; antagonist activity after 5 min incubation vs agonist (Ac)-CFWK(2-NaI)C-NH2 at 1 nM
T1 construct: expressed in transfected cells
T1 sequence (P49684 1-386): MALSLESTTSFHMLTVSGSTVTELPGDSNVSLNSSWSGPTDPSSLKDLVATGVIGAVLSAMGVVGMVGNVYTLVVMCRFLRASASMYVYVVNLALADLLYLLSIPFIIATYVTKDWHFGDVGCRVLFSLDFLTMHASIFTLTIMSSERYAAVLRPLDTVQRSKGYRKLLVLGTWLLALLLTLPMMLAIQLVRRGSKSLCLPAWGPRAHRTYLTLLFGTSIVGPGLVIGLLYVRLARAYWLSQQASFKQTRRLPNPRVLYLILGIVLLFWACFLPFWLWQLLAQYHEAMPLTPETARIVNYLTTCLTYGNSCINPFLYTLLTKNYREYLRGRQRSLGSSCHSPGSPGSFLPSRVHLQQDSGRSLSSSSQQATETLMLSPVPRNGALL
From the text: To derive these cells, the complete coding sequence of rat U-II (Genbank Accession No. U32673) was amplified by nested PCR from rat heart marathon-Ready cDNA. […] The PCR products were cloned into pcDNA3 (Invitrogen) digested with EcoR I and Xba I. Clones containing rat U-II receptor were verified by complete sequencing of the U-II receptor insert to ensure a lack of PCR-introduced errors. The constructed vector was transfected into CHO cells by using lipofectamine (GIBCO BRL). CHO cells with high expression of rat U-II receptor were selected and established as stable cell lines by using G418. CHO cells were seeded at 25,000 cells per well into 96-well, black-wall, clear-bottom microtiter plates 24 h before assay. Cells in culture media (DMEM/F12 containing 15 mM HEPES, L-glutamine, pyridoxine hydrochloride; 10% fetal bovine serum; 1 mg/mL G418 sulfate; antibiotic-antimycotic; pH 7.4) were loaded with proprietary dye, from the FLIPR Calcium Assay Kit (Molecular Devices), prepared in assay buffer (Hanks Balanced Salts Solution, 20 mM HEPES, 0.1% BSA, 2.5 mM probenecid, pH 7.4), and incubated for 1 h at 37° C. Calcium mobilization determinations were performed at room temperature (23° C.).

[2] = biological target: T2, Human UII (U-II receptor) in 6D9 human rhabdomyosarcoma cells (Homo sapiens, UniProt Q9UKP6); experiment: Human UII Calcium Mobilization Assay; format: cell-based
T2 construct: 6D9: isolated by dilution subcloning of RMS13 cells, ATCC® Number: CRL-2061; host or cells: 6D9 human rhabdomyosarcoma cells (subclone of RMS13)
T2 sequence (Q9UKP6 1-389): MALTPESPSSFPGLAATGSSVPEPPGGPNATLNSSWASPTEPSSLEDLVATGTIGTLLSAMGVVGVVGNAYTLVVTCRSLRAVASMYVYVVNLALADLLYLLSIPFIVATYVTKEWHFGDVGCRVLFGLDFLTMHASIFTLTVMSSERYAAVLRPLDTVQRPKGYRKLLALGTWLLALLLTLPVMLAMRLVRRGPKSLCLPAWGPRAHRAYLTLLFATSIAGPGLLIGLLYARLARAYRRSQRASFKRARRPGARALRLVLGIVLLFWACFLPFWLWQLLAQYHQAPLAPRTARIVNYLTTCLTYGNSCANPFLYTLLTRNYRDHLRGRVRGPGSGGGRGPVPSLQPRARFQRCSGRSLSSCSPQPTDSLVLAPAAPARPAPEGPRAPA
Protocol: 25 μL of dye solution was added to the wells such that the final liquid volume before agonist/antagonist treatment was 50 μL for all assays. The cell plates were incubated at 37° C. for 45 minutes and the fluorescence intensity was measured on a Fluorometric Imaging Plate Reader (FLIPR^TETRA, Molecular Devices, Sunnyvale, Calif.).
Antagonist and agonist U-II were added at room temperature on the FLIPR^TETRA, and the fluorescence intensity before and after addition was measured over a period of 4 minutes. The dye incubation time and temperature as well as instrument setting was adjusted so the fluorescence intensity could be compared between plates on the same day. EC50 and IC50 were analyzed using GraphPad Prism 4 software (GraphPad Software Inc., San Diego, Calif.).
For assays, U-II agonist, U-II antagonist and urantide were diluted with HBSS/HEPES containing 0.01% FBS.
Test compounds were dissolved in DMSO at 10 mM concentration. The serial dilutions were carried out in HBSS/HEPES. The highest final DMSO concentration was at 0.1%.

[3] = biological target: T3, UT receptors in HSMM (Human Skeletal Muscle Myoblasts) (Homo sapiens, UniProt Q9UKP6); experiment: Human Radioligand Binding Assay ((^125I)-U-II binding to intact HSMM)
T3 sequence (Q9UKP6 1-389): T2 sequence (Q9UKP6 1-389)

[4] = 6D9 human rhabdomyosarcoma cells, FLIPR TETRA, average, read-out: Human UII Ca+ Mobilization Average IC50
[5] = read-out: Human UII Average Binding Ki, intact HSMM, 0.150 nM (^125I)-U-II, 3 h, 25° C.

Row | SMILES | IC50 [1] [nM] | IC50 [2, 4] [nM] | Ki [3] [nM] | IC50 [2] [nM] | Ki [3, 5] [nM]
1 | CCN1CCN(c2cccc3c2CN([C@H](CCCN(C)Cc2ccccc2)c2ccc(OC)c(OC)c2)C3=O)CC1 [Cpd 3, 2-[(1R)-4-(benzyl-methyl-amino)-1-(3,4-dimethoxy-phenyl)-butyl]-4-(4-ethyl-piperazin-1-yl)-2,3-dihydro-isoindol-1-one] | 4 | 71 | 34 |  | 
2 | COc1ccc([C@@H](CCCNc2nccc(C(F)(F)F)n2)N2Cc3c(cccc3N3CCN(C4CC4)CC3)C2=O)cc1OC [Cpd 4, 4-(4-cyclopropyl-piperazin-1-yl)-2-[(1R)-1-(3,4-dimethoxy-phenyl)-4-(4-trifluoromethyl-pyrimidin-2-ylamino)-butyl]-2,3-dihydro-isoindol-1-one] | 1700 | 7010 | > 300 |  | 
3 | COc1ccc([C@@H](CCCNc2nccc(C(F)(F)F)n2)N2Cc3c(cccc3N3CCN(Cc4ccccc4)CC3)C2=O)cc1OC [Cpd 5, 4-(4-benzyl-piperazin-1-yl)-2-[(1R)-1-(3,4-dimethoxy-phenyl)-4-(4-trifluoromethyl-pyrimidin-2-ylamino)-butyl]-2,3-dihydro-isoindol-1-one] | 16 | 857 | 45 |  | 
4 | COc1ccc([C@@H](CCCNc2nccc(C(F)(F)F)n2)N2Cc3c(cccc3N3CCNCC3)C2=O)cc1OC [Cpd 6, 2-[(1R)-1-(3,4-dimethoxy-phenyl)-4-(4-trifluoromethyl-pyrimidin-2-ylamino)-butyl]-4-piperazin-1-yl-2,3-dihydro-isoindol-1-one] | 8 | 536 | 120 |  | 
5 | COc1ccc([C@@H](CCCN(C)S(=O)(=O)c2cccs2)N2Cc3c(cccc3N3CCN(C4CC4)CC3)C2=O)cc1OC [Cpd 7, thiophene-2-sulfonic acid [(4R)-4-[4-(4-cyclopropyl-piperazin-1-yl)-1-oxo-1,3-dihydro-isoindol-2-yl]-4-(3,4-dimethoxy-phenyl)-butyl]-methyl-amide] | 13 |  |  | 1170 | 59
6 | COc1ccc([C@@H](CCCN(C)S(=O)(=O)c2cccs2)N2Cc3c(cccc3N3CCN(C(C)C)CC3)C2=O)cc1OC [Cpd 8, thiophene-2-sulfonic acid {(4R)-4-(3,4-dimethoxy-phenyl)-4-[4-(4-isopropyl-piperazin-1-yl)-1-oxo-1,3-dihydro-isoindol-2-yl]-butyl}-methyl-amide] | 2 | 177 |  |  | 11
7 | COc1ccc([C@@H](CCCN(C)S(=O)(=O)c2cccs2)N2Cc3c(cccc3N3CCN(C4CCC4)CC3)C2=O)cc1OC [Cpd 9, thiophene-2-sulfonic acid [(4R)-4-[4-(4-cyclobutyl-piperazin-1-yl)-1-oxo-1,3-dihydro-isoindol-2-yl]-4-(3,4-dimethoxy-phenyl)-butyl]-methyl-amide] | 4 | 511 |  |  | 44
8 | CCN1CCN(c2cccc3c2CN([C@H](CCCNc2nc(OC)cc(OC)n2)c2ccc(OC)c(OC)c2)C3=O)CC1 [Cpd 10, 2-[(1R)-1-(3,4-dimethoxy-phenyl)-4-(4,6-dimethoxy-pyrimidin-2-ylamino)-butyl]-4-(4-ethyl-piperazin-1-yl)-2,3-dihydro-isoindol-1-one] | 4 | 617 | 81 |  | 
9 | CCN1CCN(c2cccc3c2CN(C(CC2CCN(Cc4ccccc4)CC2)c2ccc(OC)c(OC)c2)C3=O)CC1 (stereo not drawn) [Cpd 13, 2-[2-(1-benzyl-piperidin-4-yl)-1-(3,4-dimethoxy-phenyl)-ethyl]-4-(4-ethyl-piperazin-1-yl)-2,3-dihydro-isoindol-1-one] | 167 | 1980 | > 300 |  | 
10 | CCN1CCN(c2cccc3c2CN([C@H](CCCn2ncnn2)c2ccc(OC)c(OC)c2)C3=O)CC1 [Cpd 15, 2-[(1R)-1-(3,4-dimethoxy-phenyl)-4-tetrazol-2-yl-butyl]-4-(4-ethyl-piperazin-1-yl)-2,3-dihydro-isoindol-1-one] | 57 | 1590 | 172 |  | 
11 | CCN1CCN(c2cccc3c2CN(C(CC2CCN(S(=O)(=O)O)CC2)c2ccc(OC)c(OC)c2)C3=O)CC1 (stereo not drawn) [Cpd 17, 4-{2-(3,4-dimethoxy-phenyl)-2-[4-(4-ethyl-piperazin-1-yl)-1-oxo-1,3-dihydro-isoindol-2-yl]-ethyl}-piperidine-1-sulfonic acid] | 337 | 662 | 74 |  | 
12 | CCN1CCN(c2cccc3c2CN(C(c2cccc(NCc4ccccc4)c2)c2ccc(OC)c(OC)c2)C3=O)CC1 (stereo not drawn) [Cpd 19, 2-[(3-benzylamino-phenyl)-(3,4-dimethoxy-phenyl)-methyl]-4-(4-ethyl-piperazin-1-yl)-2,3-dihydro-isoindol-1-one] | 138 | 2380 | > 300 |  | 

Second part, led by results:

Row | IC50 [1] [nM] | IC50 [2, 4] [nM] | Ki [3] [nM] | SMILES | IC50 [2] [nM] | Ki [3, 5] [nM]
13 | 1 | 496 | 62 | CCN1CCN(c2cccc3c2CN([C@H](CCCNc2nccc(Cl)n2)c2ccc(OC)c(OC)c2)C3=O)CC1 [Cpd 11, 2-[(1R)-4-(4-chloro-pyrimidin-2-ylamino)-1-(3,4-dimethoxy-phenyl)-butyl]-4-(4-ethyl-piperazin-1-yl)-2,3-dihydro-isoindol-1-one] |  | 
14 | 12 | 844 | 54 | CCN1CCN(c2cccc3c2CN([C@H](CCCNc2nc(C)cc(C)n2)c2ccc(OC)c(OC)c2)C3=O)CC1 [Cpd 12, 2-[(1R)-1-(3,4-dimethoxy-phenyl)-4-(4,6-dimethyl-pyrimidin-2-ylamino)-butyl]-4-(4-ethyl-piperazin-1-yl)-2,3-dihydro-isoindol-1-one] |  | 
15 | 31 | 1390 | 129 | CCN1CCN(c2cccc3c2CN([C@H](CCCn2cnnn2)c2ccc(OC)c(OC)c2)C3=O)CC1 [Cpd 14, 2-[(1R)-1-(3,4-dimethoxy-phenyl)-4-tetrazol-1-yl-butyl]-4-(4-ethyl-piperazin-1-yl)-2,3-dihydro-isoindol-1-one] |  | 
16 | 31 | 1270 | 66 | CCN1CCN(c2cccc3c2CN(C(c2cccc(NS(=O)(=O)c4cccs4)c2)c2ccc(OC)c(OC)c2)C3=O)CC1 (stereo not drawn) [Cpd 16, thiophene-2-sulfonic acid (3-{(3,4-dimethoxy-phenyl)-[4-(4-ethyl-piperazin-1-yl)-1-oxo-1,3-dihydro-isoindol-2-yl]-methyl}-phenyl)-amide] |  | 
17 | 9 | 659 | 19 | CCN1CCN(c2cccc3c2CN(C(CC2CCN(S(=O)(=O)c4cccs4)CC2)c2ccc(OC)c(OC)c2)C3=O)CC1 (stereo not drawn) [Cpd 18, 2-{1-(3,4-dimethoxy-phenyl)-2-[1-(thiophene-2-sulfonyl)-piperidin-4-yl]-ethyl}-4-(4-ethyl-piperazin-1-yl)-2,3-dihydro-isoindol-1-one] |  | 
